Measured values reported in patent US20240182420A1, “MICROBIOCIDAL ISONICOTINIC AMIDE DERIVATIVES” (SYNGENTA CROP PROTECTION AG, priority 2021, published 2024).

Tests used:
[1] = tested on: Glomerella lagenarium syn Colletotrichum lagenarium; experiment: Glomerella lagenarium syn. Colletotrichum lagenarium (anthracnose), liquid culture growth inhibition; format: cell-based; conditions: Colletotrichum orbiculare, PDB nutrient broth, 24° C., 72 hrs, 620 nm, vs untreated control
Protocol: (§1) Conidia of the fungus from cryogenic storage were directly mixed into nutrient broth (PDB potato dextrose broth). A DMSO solution of the test compounds was placed into a microtiter plate (96-well format) and the nutrient broth containing the fungal spores was added to it. The test plates were incubated at 24° C. and the inhibition of growth was determined photometrically after 72 hrs at 620 nm.

Pyrenophora teres = Pyrenophora teres (net blotch of barley), barley leaf segments, preventive; format: in vivo; conditions: foliar, 96 h, assessed 4 dpi, vs untreated control
Protocol: (§2) Barley leaf segments are placed on agar in multiwell plates (24-well format) and sprayed with test solutions. After drying, the leaf disks are inoculated with a spore suspension of the fungus. After appropriate incubation, the activity of a compound is assessed 4 dpi (days after inoculation) as preventive fungicidal activity.

[2] = tested on: Phaeosphaeria nodorum syn. Septoria nodorum; experiment: Phaeosphaeria nodorum syn. Septoria nodorum (glume blotch of wheat), wheat leaf segments, preventive; format: in vivo; conditions: Parastagonospora nodorum, foliar, 96 h, assessed 4 dpi, vs untreated control
Protocol: as §2, with “Wheat” for “Barley”, “incubation” for “incubation,”
The following compounds from Table T1 gave at least 80% control of Phaeosphaeria nodorum at 200 ppm when compared to untreated control under the same conditions, which sowed extensive disease development: • 1.1, 1.3, 1.7, 1.14, 1.39, 1.41, 1.86, 1.87, 1.92, 1.94, 1.95.

[3] = tested on: Botryotinia fuckeliana syn. Botrytis cinerea; experiment: Botryotinia fuckeliana syn. Botrytis cinerea (gray mould), liquid culture growth inhibition; format: cell-based; conditions: PDB nutrient broth, 24° C., 72 hrs, photometric, vs untreated control
Protocol: as §1, with “hrs.” for “hrs at 620 nm.”

Alternaria solani = Alternaria solani (early blight of tomato), tomato leaf disks, preventive; format: in vivo; conditions: foliar, 96 h, assessed 4 dpi, vs untreated control
Protocol: Tomato leaf disks are placed on water agar in multiwell plates (24-well format) and sprayed with test solutions. After drying, the leaf disks are inoculated with a spore suspension of the fungus. After appropriate incubation the activity of a compound is assessed 4 dpi (days post inoculation) as preventive fungicidal activity.

[4] = tested on: Botryotinia fuckeliana syn. Botrytis cinerea; experiment: Botryotinia fuckeliana syn. Botrytis cinerea (grey mold on tomato), tomato plants; format: in vivo; conditions: tomato plants cv. Roter Gnom, inoculated two days after application, leaf area covered by disease 5-6 days after application
Protocol: 4-week old tomato plants cv. Roter Gnom are treated sprayed in a spray chamber with the formulated test compound diluted in water. The test plants are inoculated by spraying them with a spore suspension two days after application. The inoculated test plants are incubated at 20° C. and 95% rh in a greenhouse and the percentage leaf area covered by disease is assessed when an appropriate level of disease appears on untreated check plants (5-6 days after application).

Sclerotinia sclerotiorum = Sclerotinia sclerotiorum (cottony rot, white mold), liquid culture growth inhibition; format: cell-based; conditions: PDB nutrient broth, 24° C., 72 hrs, 620 nm, vs untreated control
Protocol: as §1, with “Mycelial fragments” for “Conidia”, “fungus prepared” for “fungus”, “a fresh liquid culture” for “cryogenic storage”

[5] = tested on: Monographella nivalis syn. Microdochium nivale, Fusarium nivale; experiment: Monographella nivalis syn. Microdochium nivale (snow mould, foot rot), liquid culture growth inhibition; format: cell-based; conditions: PDB nutrient broth, 24° C., 72 hrs, 620 nm, vs untreated control
Protocol: as §1

Structure (SMILES)	inhibition of growth at 20 ppm [1]	pest or weed control at 200 ppm (Pyrenophora teres)	pest or weed control at 200 ppm [2]	inhibition of growth at 20 ppm [3]	pest or weed control at 200 ppm (Alternaria solani)	pest or weed control at 200 ppm [4]	inhibition of growth at 20 ppm (Sclerotinia sclerotiorum)	inhibition of growth at 20 ppm [5]
Cc1cc(C(=O)NC[C@@H](F)c2ccc(Cl)cc2Cl)c(Oc2cccc(C3CC3)c2)cn1 [Compound 1.41, 5-(3-cyclopropyl-phenoxy)-N-[(2S)-2-(2,4-dichlorophenyl)-2-fluoro-ethyl]-2-methyl-pyridine-4-carboxamide]	≥ 80%	≥ 80%	≥ 80%	≥ 80%	≥ 80%	≥ 50%	≥ 80%	≥ 80%
Cc1ccc(C(F)CNC(=O)c2cc(C)ncc2Oc2cccc(C3CC3)c2)c(C)c1 (stereo not shown) [Compound 1.39, 5-(3-cyclopropyl-phenoxy)-N-[2-(2,4-dimethylphenyl)-2-fluoro-ethyl]-2-methyl-pyridine-4-carboxamide]	≥ 80%	≥ 80%	≥ 80%	≥ 80%	≥ 80%	≥ 50%	≥ 80%	≥ 80%
C#Cc1cncc(Oc2cccc(C3CC3)c2)c1C(=O)NCC(F)c1ccc(Cl)cc1Cl (stereo not shown) [Compound 1.87, 3-(3-cyclopropyl-phenoxy)-N-[2-(2,4-dichlorophenyl)-2-fluoro-ethyl]-5-ethynyl-pyridine-4-carboxamide]	≥ 80%	≥ 80%	≥ 80%	≥ 80%	≥ 80%	≥ 50%	≥ 80%	≥ 80%
Cc1cc(C(=O)NCC(F)c2ccc(Cl)cc2Cl)c(Oc2cccc(C3CC3)c2)cn1 (stereo not shown) [Compound 1.14, 5-(3-cyclopropyl-phenoxy)-N-[2-(2,4-dichlorophenyl)-2-fluoro-ethyl]-2-methyl-pyridine-4-carboxamide]	≥ 80%	≥ 80%	≥ 80%	≥ 80%	≥ 80%	≥ 50%	≥ 80%	≥ 80%
Cc1cccc(Oc2cnc(C)cc2C(=O)NCC(F)c2ccc(Cl)cc2Cl)c1 (stereo not shown) [Compound 1.1, N-[2-(2,4-dichlorophenyl)-2-fluoro-ethyl]-2-methyl-5-(3-methylphenoxy)pyridine-4-carboxamide]	≥ 80%	≥ 80%	≥ 80%	≥ 80%	≥ 80%	≥ 50%	≥ 80%	≥ 80%
